These compounds were tested on B16 melanoma cells (assay: Caspase-3 activity assay (EnzChek Caspase-3 Assay Kit), caspase-3 induction in tumor cells). Settings: not given.
Assay type: cell-based, mouse
Source text: The EnzChek® Caspase-3 Assay Kit was used to detect apoptosis by assaying for increases in caspase-3 activities. The basis for the assay was rhodamine 110 bis-(N-CBZ-L-aspartyl-L-glutamyl-L-valyl-L-aspartic acid amide) (Z-DEVD-R110). This substrate is a bisamide derivative of rhodamine 110 (R110) containing DEVD peptides covalently linked to each of R110's amino groups, thereby suppressing the dye's visible absorption and its fluorescence. Upon enzymatic cleavage, the nonfluorescent bisamide substrate is converted in a two-step process first to a fluorescent monoamide and then to an even more fluorescent R110.
At least 1×10^6 cells of the lysate were used for each reaction. B16 cells were treated with compounds to induce apoptosis. A negative control was prepared by incubating cells in the absence of compounds. The cells were incubated with compounds for 24 hrs and washed in PBS. Each cell sample or control was resuspended in 50 μL of the 1×cell lysis buffer. Cells were lysed by incubating on ice for 30 minutes, and the lysed cells were centrifuged to pellet the cellular debris. 50 μL of the supernatant was transferred from each sample to individual microplate wells. 50 μL of the 1× cell lysis buffer was used as a no-enzyme control to determine the background fluorescence of the substrate. 50 μL of the 2×substrate working solution was added to each sample and control. The microplate was covered, and the samples were incubated at room temperature for approximately 30 minutes. The fluorescence was measured by a fluorescence microplate reader (excitation/emission ˜496/520 nm) using excitation and emission filters.
The ability of this small molecule inhibitor to inhibit intracellular Sb9 was then evaluated. As a marker for cell penetration, the induction of caspase-3 activity in B16 melanoma cells as a surrogate marker for increased GrB activity was measured.
The induction of caspase-3 activity in B16 melanoma cells as a surrogate marker for increased GrB activity was also measured for other small molecules (compounds of Formulas (V) and (VI) as described herein).
In the case of COc1cccc(-c2nc3ccc(C(=O)N(C)CCC4CCCCO4)cc3o2)c1 (centres unmarked) [2-(3-methoxyphenyl)-N-methyl-N-[2-(tetrahydro-2H-pyran-2-yl)ethyl]-1,3-benzoxazole-6-carboxamide], the “Ratio of caspase-3 activity to Formula (III)” value (“Ratio of caspase-3 activity” below) is reported as 0.1405.
With COc1cccc(-c2nc3ccc(C(=O)N(C)Cc4nnc(C)o4)cc3o2)c1 [2-(3-methoxyphenyl)-N-methyl-N-[(5-methyl-1,3,4-oxadiazol-2-yl)methyl]-1,3-benzoxazole-6-carboxamide] the “Ratio of caspase-3 activity” value was 0.7091.
O=C(NCCc1cn[nH]c1)c1ccc2oc(-c3cccc(F)c3)nc2c1 [2-(3-fluorophenyl)-N-[2-(1H-pyrazol-4-yl)ethyl]-1,3-benzoxazole-5-carboxamide] was tested, and the “Ratio of caspase-3 activity” value was 0.4925.
In the case of COC(=O)C1CCN(C(=O)c2ccc3nc(-c4cccc(OC)c4)oc3c2)CC1 [methyl 1-{[2-(3-methoxyphenyl)-1,3-benzoxazol-6-yl]carbonyl}-4-piperidinecarboxylate], the “Ratio of caspase-3 activity” value is reported as 0.1376.
CN(CCC(O)c1ccccc1)C(=O)c1ccc2oc(-c3cccc(F)c3)nc2c1 (centres unmarked) [2-(3-fluorophenyl)-N-(3-hydroxy-3-phenylpropyl)-N-methyl-1,3-benzoxazole-5-carboxamide] was tested, and the “Ratio of caspase-3 activity” value was 0.1288.
CCC(=O)C1CCCN(C(=O)c2ccc3nc(-c4cccc(OC)c4)oc3c2)C1 (centres unmarked) [1-(1-{[2-(3-methoxyphenyl)-1,3-benzoxazol-6-yl]carbonyl}-3-piperidinyl)-1-propanone] was tested, and the “Ratio of caspase-3 activity” value was 0.1346.
In the case of CCOC(=O)CCNC(=O)c1ccc2nc(-c3cccc(OC)c3)oc2c1 [ethyl N-{[2-(3-methoxyphenyl)-1,3-benzoxazol-6-yl]carbonyl}-beta-alaninate], the “Ratio of caspase-3 activity” value is reported as 0.1049.
CC(C)NC(=O)c1ccc2oc(-c3ccc(C(F)(F)F)cc3)nc2c1 [N-isopropyl-2-[4-(trifluoromethyl)phenyl]-1,3-benzoxazole-5-carboxamide] was tested, and the “Ratio of caspase-3 activity” value was 0.2847.
With CCCc1cc(CN(C)C(=O)c2ccc3nc(-c4cccc(OC)c4)oc3c2)n[nH]1 [2-(3-methoxyphenyl)-N-methyl-N-[(5-propyl-1H-pyrazol-3-yl)methyl]-1,3-benzoxazole-6-carboxamide] the “Ratio of caspase-3 activity” value was 0.1531.
With CCn1cc(CNC(=O)c2ccc3oc(-c4cccc(F)c4)nc3c2)cn1 [N-[(1-ethyl-1H-pyrazol-4-yl)methyl]-2-(3-fluorophenyl)-1,3-benzoxazole-5-carboxamide] the “Ratio of caspase-3 activity” value was 1.163.
In the case of COc1cccc(-c2nc3ccc(C(=O)NCC(F)(F)F)cc3o2)c1 [2-(3-methoxyphenyl)-N-(2,2,2-trifluoroethyl)-1,3-benzoxazole-6-carboxamide], the “Ratio of caspase-3 activity” value is reported as 0.09526.
O=C(NCCCO)c1ccc2oc(-c3ccc(C(F)(F)F)cc3)nc2c1 [N-(3-hydroxypropyl)-2-[4-(trifluoromethyl)phenyl]-1,3-benzoxazole-5-carboxamide] was tested, and the “Ratio of caspase-3 activity” value was 1.003.
In the case of O=C1CCC(NC(=O)c2ccc3nc(-c4ccccc4)oc3c2)C(=O)N1 (centres unmarked) [N-(2,6-dioxopiperidin-3-yl)-2-phenyl-1,3-benzoxazole-6-carboxamide], the “Ratio of caspase-3 activity” value is reported as 0.6989.
With COC(=O)CCCNC(=O)c1ccc2nc(-c3cccc(OC)c3)oc2c1 [methyl 4-({[2-(3-methoxyphenyl)-1,3-benzoxazol-6-yl]carbonyl}amino)butanoate] the “Ratio of caspase-3 activity” value was 0.3858.
CC(C)N(Cc1nccn1C)C(=O)c1ccc2oc(-c3cccc(F)c3)nc2c1 [2-(3-fluorophenyl)-N-isopropyl-N-[(1-methyl-1H-imidazol-2-yl)methyl]-1,3-benzoxazole-5-carboxamide] was tested, and the “Ratio of caspase-3 activity” value was 1.634.
COc1cccc(-c2nc3ccc(C(=O)N4CCOC(C(N)=O)C4)cc3o2)c1 (centres unmarked) [4-{[2-(3-methoxyphenyl)-1,3-benzoxazol-6-yl]carbonyl}morpholine-2-carboxamide] was tested, and the “Ratio of caspase-3 activity” value was 0.1611.
For O=C(N[C@H]1CCCCNC1=O)c1ccc2oc(-c3cccc(F)c3)nc2c1 [2-(3-fluorophenyl)-N-[(3S)-2-oxo-3-azepanyl]-1,3-benzoxazole-5-carboxamide], the “Ratio of caspase-3 activity” value was 0.771.
In the case of O=C(NCCn1cccn1)c1ccc2oc(-c3cccc(F)c3)nc2c1 [2-(3-fluorophenyl)-N-[2-(1H-pyrazol-1-yl)ethyl]-1,3-benzoxazole-5-carboxamide], the “Ratio of caspase-3 activity” value is reported as 0.4693.
COc1cccc(-c2nc3ccc(C(=O)NCC4CCOCC4)cc3o2)c1 [2-(3-methoxyphenyl)-N-(tetrahydro-2H-pyran-4-ylmethyl)-1,3-benzoxazole-6-carboxamide] was tested, and the “Ratio of caspase-3 activity” value was 0.09286.
With CN(CC(O)CO)C(=O)c1ccc2oc(-c3ccc(C(F)(F)F)cc3)nc2c1 (centres unmarked) [N-(2,3-dihydroxypropyl)-N-methyl-2-[4-(trifluoromethyl)phenyl]-1,3-benzoxazole-5-carboxamide] the “Ratio of caspase-3 activity” value was 0.135.
With COc1cccc(-c2nc3ccc(C(=O)NCc4cnc(C)cn4)cc3o2)c1 [2-(3-methoxyphenyl)-N-[(5-methylpyrazin-2-yl)methyl]-1,3-benzoxazole-6-carboxamide] the “Ratio of caspase-3 activity” value was 0.1387.

Same assay, conditions: relative to compound of Formula (III)
With COCCCNC(=O)c1cccc2oc(C)nc12 [N-(3-methoxypropyl)-2-methyl-1,3-benzoxazole-4-carboxamide] the “Caspase-3 induction, Normalized to Formula (III) (%)” value was −70.4086%.
For COc1cc(C(=O)NC2CCCC2)cc(OC)c1O [N-cyclopentyl-4-hydroxy-3,5-dimethoxybenzamide], the “Caspase-3 induction, Normalized to Formula (III) (%)” value was −24.5783%.
For COc1cc(C(=O)NCC2(C)CC2)cc(OC)c1O [4-hydroxy-3,5-dimethoxy-N-[(1-methylcyclopropyl)methyl]benzamide], the “Caspase-3 induction, Normalized to Formula (III) (%)” value was −0.598%.
With CN(C)CCNC(=O)c1cc2c(cc1O)OCO2 [N-[2-(dimethylamino)ethyl]-6-hydroxy-2H-1,3-benzodioxole-5-carboxamide] the “Caspase-3 induction, Normalized to Formula (III) (%)” value was 2.3274%.
With COCCCNC(=O)c1cccc2nc(N(C)C)oc12 [2-(dimethylamino)-N-(3-methoxypropyl)-1,3-benzoxazole-7-carboxamide] the “Caspase-3 induction, Normalized to Formula (III) (%)” value was −39.581%.
With O=C(Cc1ccc2ocnc2c1)NCc1ccccc1 [2-(1,3-benzoxazol-5-yl)-N-benzylacetamide] the “Caspase-3 induction, Normalized to Formula (III) (%)” value was −34.4942%.
O=C(Cc1ccc2ocnc2c1)N1CCCC1 [2-(1,3-benzoxazol-5-yl)-1-(pyrrolidin-1-yl)ethan-1-one] was tested, and the “Caspase-3 induction, Normalized to Formula (III) (%)” value was 3.0541%.
CCN(C)C(=O)c1ccc2nc(-c3ccccc3)oc2c1 [N-ethyl-N-methyl-2-phenyl-1,3-benzoxazole-6-carboxamide] was tested, and the “Caspase-3 induction, Normalized to Formula (III) (%)” value was −76.883%.
With CCN(C)C(=O)c1cccc2oc(N(C)C)nc12 [2-(dimethylamino)-N-ethyl-N-methyl-1,3-benzoxazole-4-carboxamide] the “Caspase-3 induction, Normalized to Formula (III) (%)” value was −25.6782%.
With CCN(C)C(=O)c1cc2c(cc1O)OCO2 [N-ethyl-6-hydroxy-N-methyl-2H-1,3-benzodioxole-5-carboxamide] the “Caspase-3 induction, Normalized to Formula (III) (%)” value was −3.424%.
For O=C(c1ccc2nc(C(F)(F)F)oc2c1)N1CCCC1 [6-(pyrrolidine-1-carbonyl)-2-(trifluoromethyl)-1,3-benzoxazole], the “Caspase-3 induction, Normalized to Formula (III) (%)” value was −71.4007%.
In the case of Cc1cc(O)c(O)cc1C(=O)N1CCCC1 [4-methyl-5-(pyrrolidine-1-carbonyl)benzene-1,2-diol], the “Caspase-3 induction, Normalized to Formula (III) (%)” value is reported as −40.485%.
For COCCCNC(=O)c1ccc2nc(C3CCCCC3)oc2c1 [2-cyclohexyl-N-(3-methoxypropyl)-1,3-benzoxazole-6-carboxamide], the “Caspase-3 induction, Normalized to Formula (III) (%)” value was −42.1813%.
For COc1cc(Br)c(C(=O)NCCN(C)C)cc1OC [2-bromo-N-[2-(dimethylamino)ethyl]-4,5-dimethoxybenzamide], the “Caspase-3 induction, Normalized to Formula (III) (%)” value was −70.1327%.
In the case of O=C(NCc1ccccc1)c1ccc2nc(C(F)(F)C(F)(F)F)oc2c1 [N-benzyl-2-(1,1,2,2,2-pentafluoroethyl)-1,3-benzoxazole-6-carboxamide], the “Caspase-3 induction, Normalized to Formula (III) (%)” value is reported as −48.3904%.
For CCN(C)C(=O)c1ccc2nc(-c3cc(Cl)cc(Cl)c3)oc2c1 [2-(3,5-dichlorophenyl)-N-ethyl-N-methyl-1,3-benzoxazole-6-carboxamide], the “Caspase-3 induction, Normalized to Formula (III) (%)” value was −85.6535%.
With CCN(C)C(=O)c1ccc2nc(C3CC3)oc2c1 [2-cyclopropyl-N-ethyl-N-methyl-1,3-benzoxazole-6-carboxamide] the “Caspase-3 induction, Normalized to Formula (III) (%)” value was 33.9690%.

Source: patent publication US20230255906A1, “Targeting Serpin B9 in Cancer” (The Brigham and Women`s Hospital, Inc., priority 2020, published 2023)
Note: test concentration or dose not given here.
